Measured values taken from US11214803B2, “Modulators of YAP1 expression” (Ionis Pharmaceuticals, Inc., priority 2019, dated 2022).
Strand notation (5' to 3'): a small letter for the sugar, then the base; units joined by * are phosphorothioate-linked, units joined directly phosphodiester-linked; [ ] holds rarer units or linkages, { } end groups; capitals alone tell only the bases. k = constrained ethyl (cEt); [5mC] = 5-methylcytosine; d = 2'-deoxy (DNA)

Experiments:
[1] = Tolerability in Balb/c mice, plasma chemistry markers (Example 14); assay type: in vivo; conditions: male Balb/c mice, 50 mg/kg s.c. twice a week for four weeks (8 treatments), day 27
Experimental: (§1) Balb/c mice were treated with modified oligonucleotides selected from studies described above and evaluated for changes in the levels of various plasma chemistry markers.
(§2) Groups of male Balb/c mice at 5-6 weeks of age (obtained from Taconic) were injected subcutaneously twice a week for four weeks (for a total of 8 treatments) with 50 mg/kg of modified oligonucleotides. One group of male Balb/c mice was injected with PBS. Mice were euthanized on day 27 post start of treatment (24 hours following the final administration).

Yap1 mRNA = test: Dose-dependent inhibition of human Yap1 in A-431 cells (Example 7, 10,000 cells per well, RTS36584); assay type: cell-based; conditions: free uptake; for Yap1 mRNA, % UTC: A-431 cells 10,000 cells per well, 48 hours
Method in brief: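 A-431 cells at 10,000 per well received modified oligonucleotides by free uptake at several doses. After about 48 hours, Yap1 mRNA was quantified with primer-probe set RTS36584, normalized to RIBOGREEN total RNA and expressed as % untreated control. IC50 came from linear regression on a log/linear plot.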

[2] = Tolerability in Balb/c mice, body and organ weights (Example 14); assay type: in vivo; conditions: male Balb/c mice, 50 mg/kg s.c. twice a week for four weeks (8 treatments); for Kidney weight / Liver weight / Spleen weight: end of study (day 27); for body weight: measured on day 25
Experimental: Groups of male Balb/c mice at 5-6 weeks of age (obtained from Taconic) were injected subcutaneously twice a week for four weeks (for a total of 8 treatments) with 50 mg/kg of modified oligonucleotides. One group of male Balb/c mice was injected with PBS. […]
Modified oligonucleotides that caused any changes in organ weights outside the expected range for modified oligonucleotides were excluded from further studies.

[3] = Tolerability in Balb/c mice, body and organ weights (Example 10); assay type: in vivo; conditions: 50 mg/kg subcutaneously twice a week for four weeks, end of study
Experimental: as §2, with “4-6” for “5-6”, “26” for “27”
Body weights of Balb/c mice were measured at the end of the study, and the average body weight for each group is presented in the table below. Modified oligonucleotides that caused any changes in organ weights outside the expected range for modified oligonucleotides were excluded from further studies.

[4] = Tolerability in Balb/c mice, plasma chemistry markers (Example 10); assay type: in vivo; conditions: male Balb/c mice, 50 mg/kg subcutaneously twice a week for four weeks, day 26
Experimental: as §1
as §2, with “4-6” for “5-6”, “26” for “27”

[5] = test system: subcutaneous DEN carcinomas; test: Tumor volume in DEN-HCC model, in combination with a-PD1 antibody (Example 49); assay type: in vivo, C57BL/6 mice; conditions: DEN-HCC subcutaneous model, C57BL/6 mice
Experimental: N-nitrosodiethylamine (DEN) is administered at 25 mg/kg into 15 day old C57/BL6 mice. Carcinomas form 6 months post injection. After formation, carcinomas were then dissected from the liver and passaged subcutaneously into C57BL/6 male mice at 4-6 weeks of age to establish a subcutaneous model. For this experiment, mice were passaged with P8 subcutaneously established DEN carcinomas, rendering P9 for the duration of the experiment. Subcutaneous carcinomas are found to form at 4-6 weeks post implantation. Modified oligonucleotides 792169 (control compound) and 715491 (YAP-1 targeting modified oligonucleotide) were treated subcutaneously into groups of 7-8 mice at 10 mg/kg/week 5 times a week for 11 weeks (total of 55 doses). The PBS-only treated group and the control group were treated 5 times a week for 4 weeks (total of 20 doses). α-PD1 antibody (BioXCell) was treated intraperitoneally at 10 mg/kg/week twice a week for 4 weeks (total of 8 doses). F.D. refers to mice that were sacrificed because their tumor volume became too large.

[6] = Table 58, A-431 cells 10,000 cells per well
[7] = Table 56, A-431 cells 10,000 cells per well
[8] = Table 61, A-431 cells 10,000 cells per well

For “958497 (kA*kT*kA*dT*dG*dG*dA*dA*dA*dT*dT*dG*dT*k[5mC]*kT*k[5mC]) [compound 958497]”, the ALT [1] was 46 U/L, the AST [1] was 151 U/L and the BUN [1] was 26 mg/dL. The TBIL [1] was 0.24 mg/dL, the “Yap1 mRNA, % UTC” value (Yap1 mRNA; Table 58, 15.6 nM) was 82 % UTC and the “Yap1 mRNA, % UTC” value (Yap1 mRNA; Table 58, 62.5 nM) was 35 % UTC. For the same substance, the “Yap1 mRNA, % UTC” value (Yap1 mRNA; Table 58, 4000.00 nM) was 3 % UTC, the IC50 (Yap1 mRNA; [6]) was 100 nM and the Kidney weight [2] was 0.35 g. It also gave a Liver weight [2] of 1.31 g, a Spleen weight [2] of 0.11 g and a body weight [2] of 23 g.
“958596 (kA*kG*k[5mC]*dA*dG*dT*dT*dA*dA*dG*d[5mC]*dA*d[5mC]*kT*kT*kT; antisense) [compound 958596]” gave an ALT [1] of 207 U/L, an AST [1] of 162 U/L and a BUN [1] of 24 mg/dL. For the same substance, the TBIL [1] was 0.23 mg/dL, the “Yap1 mRNA, % UTC” value (Yap1 mRNA; Table 56, 15.6 nM) was 69 % UTC and the “Yap1 mRNA, % UTC” value (Yap1 mRNA; Table 56, 62.5 nM) was 38 % UTC. The “Yap1 mRNA, % UTC” value (Yap1 mRNA; Table 56, 4000.00 nM) was 7 % UTC, the IC50 (Yap1 mRNA; [7]) was 40 nM and the Kidney weight [2] was 0.36 g. It also gave a Liver weight [2] of 2.11 g, a Spleen weight [2] of 0.13 g and a body weight [2] of 25 g.
“958739 (kA*kG*k[5mC]*dA*dA*dT*dA*dG*dA*dG*dT*dA*dA*k[5mC]*k[5mC]*kA; antisense) [compound 958739]” gave an ALT [1] of 145 U/L, an AST [1] of 186 U/L and a BUN [1] of 21 mg/dL. The TBIL [1] was 0.21 mg/dL, the “Yap1 mRNA, % UTC” value (Yap1 mRNA; Table 61, 15.6 nM) was 77 % UTC and the “Yap1 mRNA, % UTC” value (Yap1 mRNA; Table 61, 62.5 nM) was 46 % UTC. The “Yap1 mRNA, % UTC” value (Yap1 mRNA; Table 61, 4000.00 nM) was 7 % UTC, the IC50 (Yap1 mRNA; [8]) was 100 nM and the Kidney weight [2] was 0.36 g. The Liver weight [2] was 1.58 g, the Spleen weight [2] was 0.13 g and the body weight [2] was 24 g.
Substance “958589 (kG*kT*kA*dA*dA*dG*dG*dA*dA*dG*dA*dT*d[5mC]*kT*k[5mC]*k[5mC]; antisense) [compound 958589]” has an ALT [1] of 35 U/L, an AST [1] of 66 U/L and a BUN [1] of 24 mg/dL. The TBIL [1] was 0.21 mg/dL, the “Yap1 mRNA, % UTC” value (Yap1 mRNA; Table 61, 15.6 nM) was 75 % UTC and the “Yap1 mRNA, % UTC” value (Yap1 mRNA; Table 61, 62.5 nM) was 50 % UTC. For the same substance, the “Yap1 mRNA, % UTC” value (Yap1 mRNA; Table 61, 4000.00 nM) was 8 % UTC, the IC50 (Yap1 mRNA; [8]) was 100 nM and the Kidney weight [2] was 0.37 g. For the same substance, the Liver weight [2] was 1.40 g, the Spleen weight [2] was 0.10 g and the body weight [2] was 25 g.
In the case of “715491 (kA*kA*k[5mC]*d[5mC]*dA*dA*d[5mC]*dT*dA*dT*dT*dA*d[5mC]*kT*kT*k[5mC]) [compound 715491]”, the “Yap1 mRNA, % UTC” value (Yap1 mRNA; Table 56, 15.6 nM) is reported as 92 % UTC, the “Yap1 mRNA, % UTC” value (Yap1 mRNA; Table 56, 62.5 nM) is reported as 83 % UTC and the “Yap1 mRNA, % UTC” value (Yap1 mRNA; Table 56, 4000.00 nM) is reported as 28 % UTC. It also gave an IC50 (Yap1 mRNA; [7]) of 270 nM, a Kidney weight [3] of 0.32 g and a Liver weight [3] of 1.03 g. For the same substance, the Spleen weight [3] was 0.12 g, the body weight [3] was 22 g and the “ALT (U/L)” value [4] was 33 U/L. For the same substance, the “AST (U/L)” value [4] was 48 U/L, the “TBIL” value [4] was 0.11 mg/dL and the “Average Tumor Volume” value ([5]; day 1 on treatment) was 356 mm3. For the same substance, the “Average Tumor Volume” value ([5]; day 5 on treatment) was 417 mm3, the “Average Tumor Volume” value ([5]; day 8 on treatment) was 463 mm3 and the “Average Tumor Volume” value ([5]; day 11 on treatment) was 461 mm3. The “Average Tumor Volume” value ([5]; day 15 on treatment) was 523 mm3, the “Average Tumor Volume” value ([5]; day 18 on treatment) was 526 mm3 and the “Average Tumor Volume” value ([5]; day 23 on treatment) was 658 mm3. For the same substance, the “Average Tumor Volume” value ([5]; day 25 on treatment) was 659 mm3, the “Average Tumor Volume” value ([5]; day 28 on treatment) was 661 mm3 and the “Average Tumor Volume” value ([5]; day 31 on treatment) was 740 mm3. For the same substance, the “Average Tumor Volume” value ([5]; day 35 on treatment) was 798 mm3, the “Average Tumor Volume” value ([5]; day 38 on treatment) was 741 mm3 and the “Average Tumor Volume” value ([5]; day 43 on treatment) was 723 mm3. The “Average Tumor Volume” value ([5]; day 45 on treatment) was 741 mm3, the “Average Tumor Volume” value ([5]; day 49 on treatment) was 765 mm3 and the “Average Tumor Volume” value ([5]; day 54 on treatment) was 780 mm3. The “Average Tumor Volume” value ([5]; day 58 on treatment) was 852 mm3, the “Average Tumor Volume” value ([5]; day 61 on treatment) was 925 mm3 and the “Average Tumor Volume” value ([5]; day 65 on treatment) was 896 mm3. The “Average Tumor Volume” value ([5]; day 68 on treatment) was 940 mm3, the “Average Tumor Volume” value ([5]; day 72 on treatment) was 953 mm3 and the “Average Tumor Volume” value ([5]; day 75 on treatment) was 985 mm3. For the same substance, the “Average Tumor Volume” value ([5]; day 79 on treatment) was 960 mm3.
Substance “958622 (kG*kA*kT*dA*dT*dT*d[5mC]*d[5mC]*dG*d[5mC]*dA*dT*dT*kG*k[5mC]*k[5mC]; antisense) [compound 958622]” has an ALT [1] of 224 U/L, an AST [1] of 254 U/L and a BUN [1] of 23 mg/dL. For the same substance, the TBIL [1] was 0.24 mg/dL, the “Yap1 mRNA, % UTC” value (Yap1 mRNA; Table 58, 15.6 nM) was 79 % UTC and the “Yap1 mRNA, % UTC” value (Yap1 mRNA; Table 58, 62.5 nM) was 50 % UTC. For the same substance, the “Yap1 mRNA, % UTC” value (Yap1 mRNA; Table 58, 4000.00 nM) was 7 % UTC, the IC50 (Yap1 mRNA; [6]) was 100 nM and the Kidney weight [2] was 0.33 g. It also gave a Liver weight [2] of 0.92 g, a Spleen weight [2] of 0.12 g and a body weight [2] of 23 g.
Work on “958534 (kT*kT*k[5mC]*dA*dG*d[5mC]*dA*dT*dA*dG*dA*dA*dG*kT*kA*kG; antisense) [compound 958534]” yielded an ALT [1] of 1962 U/L, an AST [1] of 1617 U/L and a BUN [1] of 26 mg/dL. The TBIL [1] was 0.33 mg/dL, the “Yap1 mRNA, % UTC” value (Yap1 mRNA; Table 61, 15.6 nM) was 85 % UTC and the “Yap1 mRNA, % UTC” value (Yap1 mRNA; Table 61, 62.5 nM) was 48 % UTC. For the same substance, the “Yap1 mRNA, % UTC” value (Yap1 mRNA; Table 61, 4000.00 nM) was 9 % UTC, the IC50 (Yap1 mRNA; [8]) was 100 nM and the Kidney weight [2] was 0.32 g. For the same substance, the Liver weight [2] was 1.81 g, the Spleen weight [2] was 0.09 g and the body weight [2] was 22 g.
